pIC50: −log10 of the molar value. Where “and” joins values, the source holds several entries; their conditions need not be identical. Equal values may be shown once. Entries after “also recorded” stand apart in the source; their conditions may differ. Read-outs that look alike come from different tables or passages of the source.
Legend:
[1] = Solubility (physical characteristics); format: physicochemical; conditions: methanol
mouse T lymphocytes = experiment: T-cell proliferation assay (ionomycin plus PMA induced, tritiated thymidine uptake); format: cell-based, mouse (C57B1/6)
Experimental: The principle of this assay is to measure the proliferation of mouse T lymphocytes stimulated with the combination of ionomycin plus PMA. A positive sample in this assay will inhibit T-cell proliferation, as indicated by reduced tritiated thymidine uptake.
Purified L-685,487, as prepared by HPLC above, was dissolved in absolute ethanol at 1 mg/ml.
Spleens from C57B1/6 mice were taken under sterile conditions and gently dissociated in ice-cold RPMI 1640 culture medium (GIBCO, Grand Island, N.Y.) supplemented with 10% heat-inactivated fetal calf serum (GIBCO). Cells were pelleted by centrifugation at 1500 rpm for 8 minutes. Contaminating red cells were removed by treating the pellet with ammonium chloride lysing buffer (GIBCO) for 2 minutes at 4° C. Cold medium was added and cells were again centrifuged at 1500 rpm. for 8 minutes. T lymphocytes were then isolated by separation of the cell suspension on nylon wool columns as follows: Nylon wool columns were prepared by packing approximately 4 grams of washed and dried nylon wool into 20 ml plastic syringes. The columns were sterilized by autoclaving at 250° F. for 30 minutes. Nylon wool columns were wetted with warm (37° C.) culture medium and rinsed with the same medium. Washed spleen cells resuspended in warm medium were slowly applied to the nylon wool. The columns were then incubated in an upright position at 37° C. for 1 hour. Non-adherent T lymphocytes were eluted from the columns with warm culture medium and the cell suspensions were spun as above.
Purified T lymphocytes were resuspended at 2.5×10^5 cells/ml in complete culture medium composed of RPMI 1640 medium with 10% heat-inactivated fetal calf serum, […] glutamine, 1 mM sodium pyruvate, 2×10^-5 M 2-mercaptoethanol and 50 μg/ml gentamycin. Ionomycin was added at 250 ng/ml and PMA at 10 ng/ml. The cell suspension was immediately distributed into 96 well flat-bottom microculture plates (Costar) at 200 μl/well. The control, being the medium without test drug, and various below-indicated dilutions of the sample (above-describedpurified L-683,756) to be tested were then added in triplicate wells at 20 μl/well. L-679,934 was used as a standard. The culture plates were then incubated at 37° C. in a humidified atmosphere of 5% CO2 -95% air for 44 hours. The proliferation of T lymphocytes was assessed by measurement of tritiated thymidine incorporation. After 44 hours of culturing, the cells were pulse-labelled with 2 μ Ci/well of tritiated thymidine (NEN, Cambridge, Mass.). After another 4 hours of incubation, cultures were harvested on glass fiber filters using a multiple sample harvester. Radioactivity of filter discs corresponding to individual wells was measured by standard liquid scintillation counting methods (Betacounter). Mean counts per minute of replicate wells were calculated and the results expressed as percent inhibition of tritiated thymidine uptake (proliferation) as follows: [formula]

[2] = reputed; EPO Publication No. 0184162; cited from earlier work

For `CC[C@@H]1/C=C(\C)CC(C)C[C@H](OC)C(O)[C@@H]2CC(C)C(O)(O2)C(=O)C(=O)N2CCCC[C@H]2C(=O)O[C@H](/C(C)=C/[C@@H]2CC[C@@H](O)C(OC)C2)[C@H](C)C(O)CC1=O` (stereo partly drawn) [L-685,487], the Solubility [1] was “Solubility in methanol”, the inhibition at 0.00058 µg/mL (mouse T lymphocytes; Mus musculus, T-lymphocyte, 0.58 ng/ml) was 0% and the inhibition at 0.00087 µg/mL (mouse T lymphocytes; Mus musculus, T-lymphocyte, 0.87 ng/ml) was 0%. The inhibition at 0.0013 µg/mL (mouse T lymphocytes; Mus musculus, T-lymphocyte, 1.3 ng/ml) was 9%, the inhibition at 0.0019 µg/mL (mouse T lymphocytes; Mus musculus, T-lymphocyte, 1.9 ng/ml) was 10% and the inhibition at 0.0029 µg/mL (mouse T lymphocytes; Mus musculus, T-lymphocyte, 2.9 ng/ml) was 10%. The inhibition at 0.0044 µg/mL (mouse T lymphocytes; Mus musculus, T-lymphocyte, 4.4 ng/ml) was 39%, the inhibition at 0.0066 µg/mL (mouse T lymphocytes; Mus musculus, T-lymphocyte, 6.6 ng/ml) was 71% and the inhibition at 0.0099 µg/mL (mouse T lymphocytes; Mus musculus, T-lymphocyte, 9.9 ng/ml) was 88%. The inhibition at 0.015 µg/mL (mouse T lymphocytes; Mus musculus, T-lymphocyte, 15.0 ng/ml) was 92%, the inhibition at 0.022 µg/mL (mouse T lymphocytes; Mus musculus, T-lymphocyte, 22.0 ng/ml) was 98% and the inhibition at 0.033 µg/mL (mouse T lymphocytes; Mus musculus, T-lymphocyte, 33.0 ng/ml) was 99%. The inhibition at 0.05 µg/mL (mouse T lymphocytes; Mus musculus, T-lymphocyte, 50.0 ng/ml) was 99%, the IC50 (mouse T lymphocytes; Mus musculus, T-lymphocyte, T-cell proliferation, 3H-thymidine pulse 4 hours, harvest at 48 hours, read-out: IC50) was 0.0049 µg/mL and 6.3 nM and the pIC50 (mouse T lymphocytes; Mus musculus, T-lymphocyte, generally in the range, read-out: IC50, general range) was 7.92 to 8.22. For the same molecule, the “Inhibition of proliferation upon addition of IL2” value (mouse T lymphocytes; addition of 50 units/m of recombinant human IL2) was “Inhibition of proliferation was reversed” and the “inhibition of T-cell activation (immunosuppressive activity)” value (mouse T lymphocytes; qualitative) was “positive inhibition of T-cell activation; also recorded: positive immunosuppressive activity”.
In the case of `C=CC[C@@H]1/C=C(\C)C[C@H](C)C[C@H](OC)[C@H]2O[C@@](O)(C(=O)C(=O)N3CCCC[C@H]3C(=O)O[C@H](/C(C)=C/[C@@H]3CC[C@@H](O)[C@H](OC)C3)[C@H](C)[C@@H](O)CC1=O)[C@H](C)C[C@@H]2OC.O` [L679,934, reference compound], the “% inhibition, standard” value (mouse T lymphocytes; 10 ng/ml) was 99%.
In the case of `C=CC[C@@H]1/C=C(\C)C[C@H](C)C[C@H](OC)[C@H]2O[C@@](O)(C(=O)C(=O)N3CCCC[C@H]3C(=O)O[C@H](/C(C)=C/[C@@H]3CC[C@@H](O)[C@H](OC)C3)[C@H](C)[C@@H](O)CC1=O)[C@H](C)C[C@@H]2OC` [FK-506], the “effectiveness relative to cyclosporin” value [2] is listed as 100 times.
